Data on 7 molecules can be found in US20230250131A1, “HYDROXYSTEROID COMPOUNDS” (Epirium Bio Inc., priority 2022, published 2023).

Where “and” joins values, the source holds several entries; their conditions need not be identical. Equal entries are not always repeated. Where two headings read alike, the source gives them in different places.

For this assay, the system named is PGC-1α. Briefly: PGC-1α assay in differentiated C2C12 cells (ELISA-type antibody detection, absorbance at 450 nm). In kind it is cell-based. The following applies: each compound tested at 0.01 nM, DMSO control as 100%; for activity at 10 pM: Mus musculus, C2C12, C2C12 myotubes. As to the method:
The compounds of Table 2 were synthesized and tested in a PGC-1α assay.
Culture conditions: DMEM containing 25 mM glucose with 10% FBS supplementation; grown at 37° C. and 5% CO2.
Assay Conditions: C2C12 cells were cultured in DMEM supplemented in 10% FBS up to 80% confluence. The cells were further trypsinized and seeded into a 96 well plate at a density of 5000 cells/well (well volume—100 μL) (Day 0). Following attachment, the cells were allowed to reach 80-90% confluence in the plate (typically 48 hours post seeding) and further differentiated using DMEM+2% Horse Serum (200 μL/well). The media was changed every day or at least every alternate day for 5 days to allow myoblasts to differentiate into myotubes. On day 7 (post seeding), the cells were treated with standards and test compounds for PGC-1α assay.
PGC-1α assay: For the detection of PGC-1α, the cells were incubated with […] primary antibody (Merck, WH10010891M3) in PBS-T containing 5% BSA at 4° C. overnight. The cells were then washed three times with PBS-T for 5 minutes and incubated with 1:1000 dilution secondary antibody (Anti-rabbit IgG, HRP-linked Antibody, Cell Signaling) in PBS-T with […] for 1 hour at RT. Cells were washed three times with PBS-T for 5 minutes The cells were incubated with 100 μl TMB substrate solution for 30 minutes and the reaction was stopped with 100 μl of 2N H2SO4. Then the plate was read at 450 nm using ELISA plate reader and absorbance recorded. […] was calculated using DMSO control as 100%. (For plate optical density calculations, a background correction was taken at 540 nm). Each compound was tested at a concentration of 0.01 nM.
Background: In an ELISA, binding on a coated surface is turned into a signal by an enzyme label.

Setting [1] is: average over experiments, read-out: Single point PGC1-Alpha Assay: Average Activity (%).
Where [2] appears, read: individual experiments (Exp. 1-3), read-out: Single point PGC1-Alpha Assay: Activity (%).

For the molecule `CCN1C(=O)CC[C@@]2(C)C1=CCC1C2[C@@H](O)C[C@@]2(C)C1CC[C@@H]2C(C)=O` (some centres unmarked), the activity at 10 pM runs as follows: under setting [1], 116%; under setting [2], 116%.

As to `CCN1C(=O)CC[C@@]2(C)C1=CCC1C2[C@@H](O)C[C@@]2(C)C1CC[C@@H]2C(C)O` (some centres unmarked), the activity at 10 pM under setting [1] turned out to be 94% and the activity at 10 pM under setting [2] came out at 94%.

Take `CCCN1C(=O)CC[C@@]2(C)C1=CCC1C2[C@@H](O)C[C@@]2(C)C1CC[C@@H]2C(C)=O` (some centres unmarked): the activity at 10 pM runs as follows: under setting [1], 109%; under setting [2], 109%.

For the molecule `CCN1C(=O)CC[C@@]2(C)C1=CCC1C3CCC(C4(C)OCCO4)[C@@]3(C)C[C@](C)(O)C12` (some centres unmarked), the activity at 10 pM worked out at 119% under setting [1] and 119% under setting [2].

Turning to `CCN1C(=O)CC[C@@]2(C)C1=CCC1C2[C@@](C)(O)C[C@@]2(C)C1CC[C@@H]2C(C)=O` (some centres unmarked), the activity at 10 pM came to 118% under setting [1] and 118% under setting [2].

As to `CCN1C(=O)CC[C@@]2(C)C1=CCC1C2[C@@](C)(O)C[C@@]2(C)C1CC[C@@H]2C(C)(C)O` (some centres unmarked), the activity at 10 pM was 126% under setting [1] and 126% under setting [2].

As for `[2H][C@]1(O)C[C@@]2(C)C(CC[C@@H]2C(C)=O)C2CC=C3N(CC)C(=O)CC[C@]3(C)C21` (some centres unmarked), the “Single point PGC1-Alpha Assay: Activity (%)” value (C2C12 myotubes, individual experiments (Exp. 1-3), 10 pM) is 137% and 112% and 131%. For the same molecule, the activity at 10 pM under setting [1] was 127%.
